Results from US20120183976A1, “METHODS OF ASSESSING ACTIVITY OF A POLYSACCHARIDE COMPOSITION” (priority 2009, published 2012).

Test system: C170HM2 human colorectal tumor cells
Experiment: C170HM2 colon cancer metastasis to the liver model
Format: in vivo, MF1 nude (nu/nu) athymic mice
Settings: 25 mg/kg i.v. cycled on days 1, 3, 5, 7
Description: Liver metastasis was initiated by intraperitoneal injection of C170HM2 human colorectal tumor cells into male MF1 nude (nu/nu) athymic mice. 5FU/leucovorin was used as a positive control.
C170HM2 cells were maintained in vitro in RPMI culture medium (Sigma) containing 10% (v/v) heat inactivated fetal bovine serum and 2 mM L-glutamine at 37° C. in 5% CO2 and humidified conditions. Cells from sub-confluent monolayers were harvested with 0.025% EDTA, washed in culture medium and re-suspended in sterile phosphate buffered saline, pH 7.4 (PBS) for in vivo administration. 1.5×10^6 cells in a volume of 1 ml were injected intraperitoneally into 65 mice, and the mice were allocated into treatment groups as below.
Group 1: n=10 Vehicle control Group 2: n=10 25 mg/kg 5FU/leucovorin i.v. cycled on days 1, 3, 5, 7 Group 3: n=10 5 mg/kg compound 1 (Dalteparin) s.c. once daily Group 4: n=10 5 mg/kg compound 2 (M402) s.c. once daily Group 5: n=10 15 mg/kg compound 2 s.c. once daily Group 6: n=10 30 mg/kg compound 2 s.c. once daily Group 7: n=5 Untreated
Treatment was initiated on day 1 following cell injection and continued until day 35 or until the clinical condition of the animal required termination. Groups 5 and 6 missed one dose on day 5. […]
The study was terminated on day 35, and the tumors in the liver were excised and weighed. The numbers of lung nodules are also counted.

Substance: 5FU/leucovorin
- Mean tumor area (day 35): 13.12 mm^2
- Mean tumor weight (liver tumors day 35): 0.037 g
